From the NIST ThermoML archive (doi:10.1007/s10765-011-1087-7)

Key:
[1] = 101 kPa, Liquid; for viscosity: Capillary tube (Ostwald / Ubbelohde) method; for speed of sound: Pulse-echo method
[2] = refractive index (Na D-line) (dimensionless); conditions: 101.33 kPa, Liquid
[3] = refractive index (Na D-line) (dimensionless); xn = mol fraction of the nth substance listed; conditions: 101 kPa, Liquid, x1 = 1
[4] = xn = mol fraction of the nth substance listed; conditions: 101 kPa, Liquid, x1 = 1; for speed of sound: Pulse-echo method

Clc1ccc(Cl)c(Cl)c1 [1,2,4-trichlorobenzene]
Conditions	mass density, [1] [kg/m3]	refractive index, [2]	speed of sound, [1] [m/s]	viscosity, [1] [mPa·s]
298.15 K	1448.41	1.548	1272	1.926
303.15 K	1442.43	1.546	1256.4	1.76
308.15 K	1436.45	1.543	1240.9	1.617

Clc1ccccc1Cl [1,2-dichlorobenzene]
Conditions	mass density, [1] [kg/m3]	refractive index, [2]	speed of sound, [1] [m/s]	viscosity, [1] [mPa·s]
298.15 K	1300.3	1.546	1281.6	1.314
303.15 K	1294.72	1.544	1265.2	1.235
308.15 K	1289.13	1.541	1245.9	1.144

Clc1ccccc1Cl [1,2-dichlorobenzene] + CCCCCCC(C)O
Conditions	mass density, [4] [kg/m3]	refractive index, [3]	speed of sound, [4] [m/s]	viscosity, [4] [mPa·s]
298.15 K	1300.3	1.546	1281.6	1.314
303.15 K	1294.72	1.544	1265.2	1.235
308.15 K	1289.13	1.541	1245.9	1.144

Clc1cccc(Cl)c1 [1,3-dichlorobenzene]
Conditions	mass density, [1] [kg/m3]	refractive index, [2]	speed of sound, [1] [m/s]	viscosity, [1] [mPa·s]
298.15 K	1283.45	1.544	1255	1.014
303.15 K	1277.79	1.541	1238.4	0.946
308.15 K	1272.1	1.538	1221.9	0.891

Clc1cccc(Cl)c1 [1,3-dichlorobenzene] + CCCCCCC(C)O
Conditions	mass density, [4] [kg/m3]	refractive index, [3]	speed of sound, [4] [m/s]	viscosity, [4] [mPa·s]
298.15 K	1283.45	1.544	1255	1.014
303.15 K	1277.79	1.541	1238.4	0.946
308.15 K	1272.1	1.538	1221.9	0.891

CCCCCCC(C)O (configuration not stated) [2-octanol]
Conditions	mass density, [1] [kg/m3]	refractive index, [2]	speed of sound, [1] [m/s]	viscosity, [1] [mPa·s]
298.15 K	816.39	1.4226	1307	6.566
303.15 K	812.58	1.4206	1289	5.178
308.15 K	808.74	1.4185	1271	4.162
